Results taken from patent publication US8288363B2, “Medicaments for anti-herpes virus treatments” (ASE & BIO, priority 2006, dated 2012).

What was measured:
HSV-2 = experiment: Anti-herpes activity, viability of infected vero cells (neutral red); assay type: cell-based, herpes simplex virus 2; conditions: for EC50: MOI 0.01 ID50/cell
Experimental: (§1) This method is based on the principle that living cells absorb neutral red, which is a vital stain. The optical density of the medium was measured at the maximum absorption wavelength of neutral red, that is to say 540 nm, using a spectrophotometer (SpectraCount™, microplate photometer, Packard). The optical density at 540 nm is proportional to the number of living cells in an infected culture (McLaren et al., Antiviral Research, 1983; 3: 223-234 and Langlois et al., Standardization, 1986, 14: 201-211).
(§2) The effective concentration (EC 50%), that is to say the concentration of the sulphated polysaccharide which enables infection of 50% of the cells of a culture to be inhibited, was measured for each viral strain.
(§3) The determination of the EC50 was carried out in 96-well microtitre plates in accordance with the following protocol. Vero cells are seeded at a cell density of 3.5·10^4 cells/well in 100 μl of MEM medium containing 8% FCS. For each viral suspension defined by its MOI: • the negative control column was filled with 100 μl of MEM medium with 8% FCS, • the virus control column was filled with 50 μl of viral suspension having the required MOI and with 50 μl of MEM medium with 8% FCS, • the PS3 control column was filled with 50 μl of PS3 having the desired concentration range or with 50 μl of acyclovir (Zovirax 0.05-5 μg/ml • finally, all the other columns were filled successively with 50 μl of PS3 having the required concentration range or with 50 μl of acyclovir (Zovirax 0.05-5 μg/ml) and with 50 μl of the viral suspension having the desired MOI.
(§4) The EC50 corresponding to the concentration which enables the cytopathic effect of the virus to be reduced by 50% was calculated in accordance with the following formula: […]
(§5) The anti-herpes activity of PS3 was evaluated and compared on each viral suspension of HSV-1, HSV-1R, HSV-2 and HSV-2R defined by an MOI of 0.01 ID50/cell for a cell concentration of 350,000 cells/ml, after incubation times of 48 and 72 hours.
(§6) This series of experiments was carried out applying the protocol enabling the EC50 to be determined, as described in Example 3.
(§7) The therapeutic indices (TI) of PS3, as well as three other reference products, that is to say acyclovir, dextran sulphate and phycarine, were determined in parallel for each viral strain.
(§8) The therapeutic index (TI) represents the ratio between the maximum non-toxic dose (or a dose inducing a quantified toxicity) and the dose inducing a favourable pharmacological effect.

[1] = system: acyclovir-resistant strain HSV-2R; experiment: as above; assay type: cell-based, herpes simplex virus 2; conditions: for Anti-herpes activity (conclusion in words) / EC50: HSV-2R; for Anti-herpes activity (conclusion in words): 48 and 72 hours; for EC50: MOI 0.01 ID50/cell
Experimental: as §1, §2, §3, §4, §5, §6, §7, §8

HSV-1 = experiment: as above; assay type: cell-based, herpes simplex virus 1; conditions: for EC50: MOI 0.01 ID50/cell
Experimental: as §1, §2, §3, §4, §5, §6, §7, §8

[2] = system: acyclovir-resistant strain HSV-1R; experiment: as above; assay type: cell-based, herpes simplex virus 1; conditions: for Anti-herpes activity (conclusion in words) / EC50: HSV-1R; for Anti-herpes activity (conclusion in words): 48 and 72 hours; for EC50: MOI 0.01 ID50/cell
Experimental: as §1, §2, §3, §4, §5, §6, §7, §8

[3] = system: HSV-1, HSV-1R, HSV-2 and HSV-2R; experiment: Action as a function of the moment of use (time of addition); assay type: cell-based, herpes simplex virus; conditions: for Inhibitory effect as a function of the moment of use: viral strains HSV-1R and HSV-2R, PS3 even when used 3 hours after infection, 72 hours
Experimental: To determine at what moment it is appropriate to use PS3, the procedure was as follows.
Vero cells were seeded at a cell density of 3.5·10^4 cells/well of a 96-well microtitre plate in 100 μl of MEM medium containing 8% FCS and they were then infected by being brought into contact with the various viral strains identified above for 1 hour at 4° C.
The infected cells were then washed with a saline buffer in order to remove the viral particles which had not be adsorbed.
The infected cells were then treated with PS3 or with the comparison product: • either at the moment of infection, • or 1, 2, 3 and 5 hours after infection.
In each case the microtitre plates were kept at 37° C. for 72 hours. The inhibitory effect of PS3 or of the comparison product, in this case acyclovir, was then determined for each viral strain.

[4] = system: HSV-1, HSV-1R, HSV-2 and HSV-2R; experiment: Action on the viral adsorption, conclusion for the strains together; assay type: cell-based, herpes simplex virus
Experimental: To determine whether PS3 has an effect on the viral adsorption, the procedure was as follows.
Vero cells were seeded at a cell density of 3.5·10^4 cells/well of a 96-well microtitre plate in 100 μl of MEM medium containing 8% FCS 24 hours before the test. The viral suspensions of HSV-1, HSV-1R, HSV-2 and HSV-2R, defined by an MOI of 0.01 ID50/cell for a cell concentration of 350,000 cells/ml, were tested.
On the day of the test, the cells were subjected to three different treatments designated A, B and C.
According to treatment A, cells treated with 50 μl of PS3 or comparison product (acyclovir) of a given concentration were infected with 50 μl of one of the viral suspensions identified above for one hour at 4° C.
The infected cells were then washed with 100 μl of saline buffer in order to remove the PS3 or the reference product as well as the viral particles which had not been adsorbed by the cells.
After having filled each well with sufficient MEM medium containing 8% FCS to arrive at a volume of 200 μl, the cells were then placed in an oven at 37° C. for 72 hours. […]
For these 3 treatments, the inhibitory effect of PS3 and of the reference product (expressed in EC50) on the adsorption of the four abovementioned viral strains after 72 hours was evaluated by measurement of the EC50 values in accordance with the method described in Example 3.

[5] = strains HSV-1, HSV-2, HSV-1R, HSV-2R
[6] = non-resistant strains HSV-1 and HSV-2

Compound	Therapeutic index HSV-2 (HSV-2; incubation time 48 hours)	Therapeutic index HSV-2 (HSV-2; incubation time 72 hours)	Anti-herpes activity (conclusion in words) [1]	Therapeutic index HSV-2R ([1]; incubation time 48 hours)	Therapeutic index HSV-2R ([1]; incubation time 72 hours)	Therapeutic index HSV-1 (HSV-1; incubation time 48 hours)	Therapeutic index HSV-1 (HSV-1; incubation time 72 hours)	Anti-herpes activity (conclusion in words) [2]	Therapeutic index HSV-1R ([2]; incubation time 48 hours)	Therapeutic index HSV-1R ([2]; incubation time 72 hours)	Inhibitory effect as a function of the moment of use [3]	also measured
sulphated laminarin [PS3]	>4,808	>1,344	more effective than acyclovir	>3,788	>1,712	>1,761	>651	more effective than acyclovir	>1,157	>530	particularly effective	Anti-herpes activity (conclusion in words) (HSV-2; HSV-2, 48 and 72 hours): more effective than acyclovir; EC50 (HSV-2; HSV-2, after 48 hours of treatment): less than 2 μg/ml; EC50 (HSV-2; HSV-2, after 72 hours of treatment): less than 5 μg/ml; EC50 ([1]; after 48 hours of treatment): less than 2 μg/ml; EC50 ([1]; after 72 hours of treatment): less than 5 μg/ml; EC50 (HSV-1; HSV-1, after 48 hours of treatment): less than 2 μg/ml; EC50 (HSV-1; HSV-1, after 72 hours of treatment): less than 5 μg/ml; EC50 ([2]; after 48 hours of treatment): less than 2 μg/ml; EC50 ([2]; after 72 hours of treatment): less than 5 μg/ml; Effect in relation to the moment of addition [3, 5]: not very effective; Effect on adsorption [4, 5]: inhibitory effect on the 4 viral strains solely during treatment C and yes
Nc1nc2c(ncn2COCCO)c(=O)[nH]1 [Acyclovir, acyclovir, reference compound]	>579	>613	not effective	0	0	>4,902	>1,492	not effective	0	0	no effect	Effect in relation to the moment of addition [3, 6]: effective up; Effect on adsorption [4, 6]: no
